Article PMC5844530, “Fosmetpantotenate (RE-024), a phosphopantothenate replacement therapy for pantothenate kinase-associated neurodegeneration: Mechanism of action and efficacy in nonclinical models” (PLoS ONE, 2018)
Where “and” joins values, the source holds several entries; their conditions need not be identical. Identical values can stand only once.

Key:
[1] = Metabolic stability in mouse whole blood; assay type: in vitro ADME; details: for Percentage Remaining: mouse whole blood, replicates 1 and 2, listed as Fosmetpantotenate Total
Method: Metabolic stability in blood and liver microsomes: Fosmetpantotenate or its individual diastereomers (5 μM, n = 2, 37°C) were incubated in mouse, rat, cynomolgus monkey, and human whole blood. Samples (50 μL) were taken at 0, 5, 15, 30, and 60 min. Incubations of fosmetpantotenate or its individual diastereomers (1 μM, n = 2, 37°C) in pooled liver microsomes (0.25 mg protein/mL in 0.1 M phosphate buffer pH 7.4) were initiated with the addition of nicotinamide adenine dinucleotide phosphate (NADPH; 1 mM). Aliquots (100 μL) were obtained at 0, 5, 10, 20, and 40 min and added to 150 μL of 0.1% formic acid in acetonitrile-containing carbamazepine (0.5 μM) as an analytical internal standard, centrifuged, and the supernatants analyzed by LC-MS/MS.
Bioanalysis for determinations of analyte stability: Samples were analyzed using a benchtop tandem quadrupole detector (TQD) mass spectrometer (Waters Ltd, Centennial Park, Hertfordshire). […] Suitable retention and peak shape with separation of the 2 diastereomers were obtained. The chromatography column was a Phenomenex-Kinetex XB C18 (2.10 x 50 mm; 2.6 μm), with a 0.7 mL/min flow rate and a 2 μL injection volume. […] The gradient was initiated with 20% B and increased linearly, reaching 40% B at 0.6 min, followed by 50% B at 0.8 min and by 95% B at 0.9 min. Conditions were kept isocratic through 1.2 min, returned to starting conditions (20% B) at 1.25 min, and maintained at 20% B through 1.5 min before the next injection. Since fosmetpantotenate is a mixture of diastereomers which are resolved chromatographically, the fosmetpantotenate MRM area corresponds to the sum of the MRM areas of the individual diastereomers.
The percent of compound remaining was determined from the MRM area response in each sample relative to that in the T = 0 samples (normalized for internal standard). Natural log plots of the percent compound remaining over time were used to determine the t½ of compound disappearance using the relationship t½ = -0.693/λ, where λ is the slope of the natural logarithm of the percent compound remaining vs time curve.

[2] = Pharmacokinetics in whole blood, CD-1 mice; details: blood; for concentration at 0.083 h / concentration at 0.167 h / concentration at 0.333 h / concentration at 0.5 h / concentration at 1 h / concentration at 2 h / concentration at 0.033 h / concentration at 4 h: male, CD-1, mouse, in vivo
Method: (§1) The whole blood samples (0.5 mL) were collected into syringes that were prefilled with 2.5 mL of ice-cold 0.1% formic acid in acetonitrile. The volume ratio of the whole blood to 0.1% formic acid in acetonitrile was 1/5 (v/v). Samples were frozen (-70°C) until analyzed by LC-MS/MS.
(§2) Standard curves and quality control (QC) samples were prepared fresh on the day of analysis by serial dilution of the standard mixture in quenched whole blood (1 part of blood to 5 parts of 0.1% formic acid in acetonitrile) and centrifuged. […] The frozen study samples were thawed in an ice/water bath and centrifuged. Supernatant (50 μL) from standards, QC samples, and study samples was transferred to a 96-well plate and dried completely under nitrogen. The dried residues were reconstituted with 100 μL of 0.1% formic acid in water containing internal standard (5 ng/mL of ^15N/^13C3-RE-024-02) and analyzed by LC-MS/MS.
(§3) LC-MS/MS analysis for blood pharmacokinetic samples: Samples were analyzed using an Agilent 1100 binary pump (Agilent Technologies, Santa Clara, CA, USA), connected to an AB Sciex API 6500 mass spectrometer (SCIEX, Framingham, MA, USA). An electrospray ionization source was used, scanning in the positive mode. […] The chromatography column was a Varian Metasil AQ 120–5 C18 column, 5 μm, 50 x 2.00 mm (Part No. A0530050X020) at ambient temperature, with a 0.5 mL/min flow rate and a 20 μL injection volume. Mobile phase (A) consisted of 0.1% formic acid in water; while mobile phase (B) consisted of 0.1% formic acid in acetonitrile:water (9:1, v/v).
(§4) Quantitation of in vivo samples: Peak areas were integrated using Analyst software (AB Sciex, Concord, Ontario, Canada). […] Calibration standards (at a minimum 7 per curve) were fit by linear regression with (1/x^2) weighting. QC samples were used (triplicate) at 3 concentrations for all tandem mass spectrometry (MS/MS) runs.
(§5) Pharmacokinetic calculations: PK analysis was performed using Phoenix WinNonlin®, Build 6.3.0.395 (Certara, Princeton, NJ, USA) using a non-compartmental model (PO dose = model 200 for extravascular dosing). […] Post-dose concentrations below the limit of quantitation (BLQ) were omitted from calculation.

[3] = Pharmacokinetics in whole blood, cynomolgus monkeys; details: blood; for AUC: single PO fosmetpantotenate 300 mg/kg, mean (individual values), N = 2, analyte = label
Method: as §1, §2, §3, §4, §5

[4] = male cynomolgus monkeys, fosmetpantotenate 300 mg/kg oral, 0 hr
[5] = male cynomolgus monkeys, fosmetpantotenate 300 mg/kg oral, 0.033 hr
[6] = male cynomolgus monkeys, fosmetpantotenate 300 mg/kg oral, 8 hr

COC(=O)CCNC(=O)[C@H](O)C(C)(C)COP(=O)(N[C@@H](C)C(=O)OC)Oc1ccccc1 (mixture of isomers) [Fosmetpantotenate]
half-life at 5 μM ([1]; mouse blood, 5 μM, 37°C, 60 min): < 5 min
Percentage Remaining ([1]; 5 min): 1%
Percentage Remaining ([1]; 15 min): 1%
Conc. ([2]; fosmetpantotenate 100 mg/kg PO, 0.033 hr, individual animals): 6.22 nM and BQL and 218.78 ^(a) nM and 9.40 nM
Conc. ([2]; fosmetpantotenate 100 mg/kg PO, 0.083 hr, individual animals): BQL and 1.94 nM
Conc. ([2]; fosmetpantotenate 100 mg/kg PO, 0.167 hr, individual animals): BQL and 2.30 nM
Conc. ([2]; fosmetpantotenate 100 mg/kg PO, 0.333 hr, individual animals): 2.38 nM and 1.98 nM
Conc. ([2]; fosmetpantotenate 100 mg/kg PO, 0.5 hr, individual animals): BQL and 1.43 nM
Conc. ([2]; fosmetpantotenate 100 mg/kg PO, 1 hr, individual animals): BQL and 1.77 nM
Conc. ([2]; fosmetpantotenate 100 mg/kg PO, 2 hr, individual animals): BQL
Mean Conc. ([2]; fosmetpantotenate 100 mg/kg PO, 4 hr): BQL
Conc. ([2]; fosmetpantotenate 100 mg/kg PO, 4 hr, individual animals): BQL
Mean Conc. ([2]; fosmetpantotenate 100 mg/kg PO, 8 hr): BQL
Conc. ([2]; fosmetpantotenate 100 mg/kg PO, 8 hr, individual animals): BQL
Conc. ([2]; fosmetpantotenate 300 mg/kg PO, 0.033 hr, individual animals): 1.41 nM and 49.95 nM and 66.65 nM and 2.76 nM
Conc. ([2]; fosmetpantotenate 300 mg/kg PO, 0.083 hr, individual animals): 5.50 nM and 4.59 nM and 18.72 nM and 28.96 nM
Conc. ([2]; fosmetpantotenate 300 mg/kg PO, 0.167 hr, individual animals): 1.62 nM and 1.56 nM and 3.71 nM and BQL
Conc. ([2]; fosmetpantotenate 300 mg/kg PO, 0.333 hr, individual animals): 1.22 nM and 1.07 nM and 1.14 nM
Conc. ([2]; fosmetpantotenate 300 mg/kg PO, 0.5 hr, individual animals): 1.14 nM and 1.24 nM
Conc. ([2]; fosmetpantotenate 300 mg/kg PO, 1 hr, individual animals): BQL
Mean Conc. ([2]; fosmetpantotenate 300 mg/kg PO, 2 hr): BQL
Conc. ([2]; fosmetpantotenate 300 mg/kg PO, 2 hr, individual animals): BQL
Conc. ([2]; fosmetpantotenate 300 mg/kg PO, 4 hr, individual animals): BQL
Mean Conc. ([2]; fosmetpantotenate 300 mg/kg PO, 8 hr): BQL
Conc. ([2]; fosmetpantotenate 300 mg/kg PO, 8 hr, individual animals): BQL
Fosmetpantotenate Conc. ([2]; male CD-1 mice, fosmetpantotenate 700 mg/kg oral, 0.033 hr, individual animals, BQL <1.02 nM): 61.71 nM and 230.17 nM and 51.34 nM and 195.45 nM
Fosmetpantotenate Conc. ([2]; male CD-1 mice, fosmetpantotenate 700 mg/kg oral, 0.083 hr, individual animals, BQL <1.02 nM): 24.28 nM and 3756.01(a) nM and 8.28 nM and 16.06 nM
Fosmetpantotenate Conc. ([2]; male CD-1 mice, fosmetpantotenate 700 mg/kg oral, 0.167 hr, individual animals, BQL <1.02 nM): 575.42 nM and 158.08 nM and 6.93 nM and 488.15 nM
Fosmetpantotenate Conc. ([2]; male CD-1 mice, fosmetpantotenate 700 mg/kg oral, 0.333 hr, individual animals, BQL <1.02 nM): 22.76 nM
Fosmetpantotenate Conc. ([2]; male CD-1 mice, fosmetpantotenate 700 mg/kg oral, 0.5 hr, individual animals, BQL <1.02 nM): 3.33 nM and 21.75 nM and 6.47 nM and 283.28 nM
Fosmetpantotenate Conc. ([2]; male CD-1 mice, fosmetpantotenate 700 mg/kg oral, 1 hr, individual animals, BQL <1.02 nM): 128.99 nM and 6.41 nM and 3.33 nM and 67.53 nM
Fosmetpantotenate Conc. ([2]; male CD-1 mice, fosmetpantotenate 700 mg/kg oral, 2 hr, individual animals, BQL <1.02 nM): 1.29 nM and 1.18 nM and 1.64 nM and 16.31 nM
Fosmetpantotenate Conc. ([2]; male CD-1 mice, fosmetpantotenate 700 mg/kg oral, 4 hr, individual animals, BQL <1.02 nM): BQL
Fosmetpantotenate Conc. ([2]; male CD-1 mice, fosmetpantotenate 700 mg/kg oral, 8 hr, individual animals, BQL <1.02 nM): BQL
Fosmetpantotenate Mean Conc. ([2]; male CD-1 mice, fosmetpantotenate 700 mg/kg oral, 8 hr, mean, BQL <1.02 nM): BQL
concentration at 0.083 h ([2]; 100 mg/kg, Conc., fosmetpantotenate 100 mg/kg PO, 0.083 hr, individual animals): 2 nM
concentration at 0.167 h ([2]; 100 mg/kg, Conc., fosmetpantotenate 100 mg/kg PO, 0.167 hr, individual animals): 1.31 nM
concentration at 0.333 h ([2]; 100 mg/kg, Conc., fosmetpantotenate 100 mg/kg PO, 0.333 hr, individual animals): 1.31 nM
concentration at 0.5 h ([2]; 100 mg/kg, Conc., fosmetpantotenate 100 mg/kg PO, 0.5 hr, individual animals): 1.35 nM
concentration at 1 h ([2]; 100 mg/kg, Conc., fosmetpantotenate 100 mg/kg PO, 1 hr, individual animals): 1.26 nM
concentration at 2 h ([2]; 100 mg/kg, Conc., fosmetpantotenate 100 mg/kg PO, 2 hr, individual animals): 2.97 nM
concentration at 0.033 h ([2]; 100 mg/kg, Mean Conc., fosmetpantotenate 100 mg/kg PO, 0.033 hr): 7.81 nM
concentration at 0.083 h ([2]; 100 mg/kg, Mean Conc., fosmetpantotenate 100 mg/kg PO, 0.083 hr): 1.97 nM
concentration at 0.167 h ([2]; 100 mg/kg, Mean Conc., fosmetpantotenate 100 mg/kg PO, 0.167 hr): 1.8 nM
concentration at 0.333 h ([2]; 100 mg/kg, Mean Conc., fosmetpantotenate 100 mg/kg PO, 0.333 hr): 1.74 nM
concentration at 0.5 h ([2]; 100 mg/kg, Mean Conc., fosmetpantotenate 100 mg/kg PO, 0.5 hr): 1.39 nM
concentration at 1 h ([2]; 100 mg/kg, Mean Conc., fosmetpantotenate 100 mg/kg PO, 1 hr): 1.52 nM
concentration at 2 h ([2]; 100 mg/kg, Mean Conc., fosmetpantotenate 100 mg/kg PO, 2 hr): 2.97 nM
concentration at 0.333 h ([2]; 300 mg/kg, Conc., fosmetpantotenate 300 mg/kg PO, 0.333 hr, individual animals): 1.43 nM
concentration at 0.5 h ([2]; 300 mg/kg, Conc., fosmetpantotenate 300 mg/kg PO, 0.5 hr, individual animals): 1.83 nM
concentration at 1 h ([2]; 300 mg/kg, Conc., fosmetpantotenate 300 mg/kg PO, 1 hr, individual animals): 1.14 nM
concentration at 4 h ([2]; 300 mg/kg, Conc., fosmetpantotenate 300 mg/kg PO, 4 hr, individual animals): 1.03 nM
concentration at 0.033 h ([2]; 300 mg/kg, Mean Conc., fosmetpantotenate 300 mg/kg PO, 0.033 hr): 30.2 nM
concentration at 0.083 h ([2]; 300 mg/kg, Mean Conc., fosmetpantotenate 300 mg/kg PO, 0.083 hr): 14.4 nM
concentration at 0.167 h ([2]; 300 mg/kg, Mean Conc., fosmetpantotenate 300 mg/kg PO, 0.167 hr): 2.3 nM
concentration at 0.333 h ([2]; 300 mg/kg, Mean Conc., fosmetpantotenate 300 mg/kg PO, 0.333 hr): 1.22 nM
concentration at 0.5 h ([2]; 300 mg/kg, Mean Conc., fosmetpantotenate 300 mg/kg PO, 0.5 hr): 1.36 nM
concentration at 1 h ([2]; 300 mg/kg, Mean Conc., fosmetpantotenate 300 mg/kg PO, 1 hr): 1.14 nM
concentration at 4 h ([2]; 300 mg/kg, Mean Conc., fosmetpantotenate 300 mg/kg PO, 4 hr): 1.03 nM
concentration at 0.333 h ([2]; 700 mg/kg, Fosmetpantotenate Conc., male CD-1 mice, fosmetpantotenate 700 mg/kg oral, 0.333 hr, individual animals, BQL <1.02 nM): 24.4 nM
concentration at 4 h ([2]; 700 mg/kg, Fosmetpantotenate Conc., male CD-1 mice, fosmetpantotenate 700 mg/kg oral, 4 hr, individual animals, BQL <1.02 nM): 1.14 nM
concentration at 0.033 h ([2]; 700 mg/kg, Fosmetpantotenate Mean Conc., male CD-1 mice, fosmetpantotenate 700 mg/kg oral, 0.033 hr, mean, BQL <1.02 nM): 135 nM
concentration at 0.083 h ([2]; 700 mg/kg, Fosmetpantotenate Mean Conc., male CD-1 mice, fosmetpantotenate 700 mg/kg oral, 0.083 hr, mean, BQL <1.02 nM): 16.2 nM
concentration at 0.167 h ([2]; 700 mg/kg, Fosmetpantotenate Mean Conc., male CD-1 mice, fosmetpantotenate 700 mg/kg oral, 0.167 hr, mean, BQL <1.02 nM): 307 nM
concentration at 0.333 h ([2]; 700 mg/kg, Fosmetpantotenate Mean Conc., male CD-1 mice, fosmetpantotenate 700 mg/kg oral, 0.333 hr, mean, BQL <1.02 nM): 23.6 nM
concentration at 0.5 h ([2]; 700 mg/kg, Fosmetpantotenate Mean Conc., male CD-1 mice, fosmetpantotenate 700 mg/kg oral, 0.5 hr, mean, BQL <1.02 nM): 78.7 nM
concentration at 1 h ([2]; 700 mg/kg, Fosmetpantotenate Mean Conc., male CD-1 mice, fosmetpantotenate 700 mg/kg oral, 1 hr, mean, BQL <1.02 nM): 51.6 nM
concentration at 2 h ([2]; 700 mg/kg, Fosmetpantotenate Mean Conc., male CD-1 mice, fosmetpantotenate 700 mg/kg oral, 2 hr, mean, BQL <1.02 nM): 5.11 nM
concentration at 4 h ([2]; 700 mg/kg, Fosmetpantotenate Mean Conc., male CD-1 mice, fosmetpantotenate 700 mg/kg oral, 4 hr, mean, BQL <1.02 nM): 1.14 nM
AUC [3]: 34,400 (13000, 55800) nM*h
AUC ([3]; cynomolgus monkey, in vivo, po, 300 mg/kg, AUC): 34 µM·h
Fosmetpantotenate Mean Conc. [3, 4]: BQL
Fosmetpantotenate blood concentration, Cyno #1 [3, 4]: BQL
Fosmetpantotenate blood concentration, Cyno #2 [3, 4]: BQL
Fosmetpantotenate Mean Conc. [3, 5]: BQL
Fosmetpantotenate blood concentration, Cyno #1 [3, 5]: BQL
Fosmetpantotenate blood concentration, Cyno #2 [3, 5]: BQL
Fosmetpantotenate Mean Conc. [3, 6]: BQL
Fosmetpantotenate blood concentration, Cyno #1 [3, 6]: BQL
Fosmetpantotenate blood concentration, Cyno #2 [3, 6]: BQL
concentration at 0.083 h ([3]; male, cynomolgus monkey, in vivo, 300 mg/kg, Fosmetpantotenate Mean Conc., male cynomolgus monkeys, fosmetpantotenate 300 mg/kg oral, 0.083 hr): 197 nM
